In patent US11840686B2, “Modulation of prekallikrein (PKK) expression” (Ionis Pharmaceuticals, Inc., priority 2013, dated 2023):
pIC50: −log10 of the molar value. Several values for one entry are separate records, joined by “and”; a condition that tells them apart may be missing. Equal values may be shown once. e = 2'-O-(2-methoxyethyl) (MOE); d = 2'-deoxy (DNA)

Experiments:
[1] = tested on: vascular permeability induced by ISIS 461756; test: C1-INH antisense oligonucleotide-induced vascular permeability, Evans Blue OD600 (Example 18); format: in vivo, mouse; conditions: Evans Blue OD600; all groups ISIS 461756 25 mg/kg/wk; pretreatment PBS or oligonucleotide 80 mg/kg/wk
Description: (§1) Vascular permeability induced by ISIS 461756, an antisense oligonucleotide which targets murine C1 inhibitor mRNA, increases vascular permeability in mice and replicates the pathology of hereditary angioedema. The effect of ISIS 482584 on this model was evaluated.
(§2) One group of 8 mice was treated with 40 mg/kg ISIS 482584 administered subcutaneously twice a week for 3 weeks (weekly dose of 80 mg/kg). A second group of 8 mice was treated with 40 mg/kg of the control oligonucleotide, ISIS 141923, administered subcutaneously twice a week for 3 weeks (weekly dose of 80 mg/kg). A third group of 8 mice was treated with PBS administered subcutaneously twice a week for 3 weeks. On day 14, all the groups were treated with 12.5 mg/kg ISIS 461756 administered subcutaneously twice a week for 3 weeks (weekly dose of 25 mg/kg). A control group of mice was treated with PBS administered subcutaneously twice a week for 3 weeks but was not administered ISIS 461756.
(§3) At the end of the treatment period, all the groups were injected with 30 mg/kg of Evans Blue solution into the tail vein. The mice were sacrificed 30 min after the Evans Blue solution administration and colons, feet, ears, and intestines were harvested. The liver was also harvested for RNA analysis.
The harvested tissues from the feet, colon, and intestines were placed in formamide solution overnight to leach out the Evans Blue dye. The formamide solution containing feet tissue was heated to 55° C. and left overnight. The color intensity of the dye-infused formamide solution was then measured at OD600 nm. The data is presented in Table 80 as percent increase or reduction compared to the PBS control not treated with ISIS 461756.

[2] = tested on: captopril and ISIS 461756-induced vascular permeability; test: Evans Blue vascular permeability in captopril and ISIS 461756-induced angioedema mouse models (Example 11); format: in vivo; conditions: captopril Yes, ISIS 461756 Yes; ISIS oligonucleotides 40 mg/kg sc twice a week 4 weeks; HOE-140 30 μg ip
From the text: Hereditary angioedema (HAE) is characterized by local swelling and increase in vascular permeability in subcutaneous tissues (Morgan, B. P. N. Engl. J. Med. 363: 581-83, 2010). It is caused by a deficiency of the C1 inhibitor, a protein of the complement system. Two mouse models were used in this study including an established mouse model of C1-INH deficiency and a captopril-induced edema model, both of which cause vascular permeability, a hallmark of HAE. Reversal of vascular permeability is accompanied by increased plasma levels of high molecular weight kininogen (HMWK).
In the first model, angioedema was induced by treatment with Captopril, a known antihypertensive agent, which increases vascular permeability in mice and replicates the pathology of hereditary angioedema.
In the second model, angioedema was induced by treatment with ISIS 461756, an antisense oligonucleotide which targets murine C1 inhibitor mRNA, which increases vascular permeability in mice and replicates the pathology of hereditary angioedema. ISIS 461756 (SEQ ID NO: 2245; […]) is a 5-10-5 MOE gapmer targeting nucleosides 1730-1749 of NM_009776.3 (SEQ ID NO: 2243).
The effect of HOE-140 and ISIS 482584, an antisense oligonucleotide inhibitor of PKK, were evaluated in the Captopril and ISIS 461756-induced mouse models of vascular permeability. Some of the murine groups were treated with HOE-140, a selective antagonist of the bradykinin B2 receptor, which blocks vasodilation and vascular permeability (Cruden and Newby, Expert Opin. Pharmacol. 9: 2383-90, 2008). Other mice were treated with ISIS 482584, which inhibits PKK mRNA expression. The effect of treatment with HOE-140 was compared with the effect of treatment with ISIS 482584.
Group 1 consisted of 4 C57BL/6J-Tyrc-2J mice treated with PBS administered subcutaneously twice a week for 4 weeks. No other treatment was administered to Group 1 which served as a control group to measure the basal level of vascular permeability.
Group 2 consisted of 8 C57BL/6J-Tyrc-2J mice treated with PBS administered subcutaneously twice a week for 4 weeks. At the end of the treatment, the mice were intraperitoneally administered 20 μg of captopril. Group 2 served as a PBS control group for captopril-induced vascular permeability.
(§4) Group 3 consisted of 8 C57BL/6J-Tyrc-2J mice treated with PBS administered subcutaneously twice a week for 4 weeks. On day 14, the mice were treated with 50 mg/kg of the antisense oligonucleotide targeting C1 inhibitor, ISIS 461756, administered subcutaneously twice a week for 2 weeks. At the end of the treatment period, the mice were intraperitoneally administered 20 μg of captopril. Group 3 served as a PBS control group for captopril and ISIS 461756-induced vascular permeability.
Group 4 consisted of 8 C57BL/6J-Tyrc-2J mice treated with PBS administered subcutaneously twice a week for 4 weeks. On day 14, the mice were treated with 50 mg/kg of the antisense oligonucleotide targeting C1 inhibitor, ISIS 461756, administered subcutaneously twice a week for 2 weeks. At the end of the treatment period, the mice were intraperitoneally administered 20 μg of captopril. The mice were then also intraperitoneally administered 30 μg of HOE-140. Group 4 served as a positive control for inhibition of vascular permeability with HOE-140.
as §4, with “5” for “3”, “40 mg/kg of control oligonucleotide ISIS 141923, a 5-10-5 MOE gapmer with no known murine target, ([…]; SEQ ID NO: 2246)” for “PBS”, “a” for “a PBS”, “permeability. […]” for “permeability.”

[3] = tested on: PKK mRNA; test: PKK mRNA in liver of mice treated with ISIS 461756 (Example 18); format: in vivo, mouse; conditions: liver; all groups ISIS 461756 25 mg/kg/wk; pretreatment PBS or oligonucleotide 80 mg/kg/wk sc 3 weeks
Description: as §1, §2, §3
(§5) RNA was isolated from the liver for RT-PCR analysis of C1-INH and PKK mRNAs. The primer probe set for C1-INH is RTS3218 (forward sequence […], designated herein as SEQ ID NO: 2234; reverse sequence […], designated herein as SEQ ID NO: 2235; probe sequence […], designated herein as SEQ ID NO: 2236). The primer probe set for PKK is RTS3287 (forward sequence […], designated herein as SEQ ID NO: 2237; reverse sequence […], designated herein as SEQ ID NO: 2238; probe sequence […], designated herein as SEQ ID NO: 2239). The results are presented in Table 79 as percent inhibition compared to the PBS control not treated with ISIS 461756.

[4] = tested on: C1-INH mRNA; test: C1-INH mRNA in liver of mice treated with ISIS 461756 (Example 18); format: in vivo, mouse; conditions: liver; all groups ISIS 461756 25 mg/kg/wk; pretreatment PBS or oligonucleotide 80 mg/kg/wk sc 3 weeks
Description: as §1, §2, §3, §5

[5] = Hematological parameters in cynomolgus monkeys (Example 8); conditions: cynomolgus monkey, 40 mg/kg sc, day 87 or day 88
Description: (§6) Prior to the study, the monkeys were kept in quarantine for a 30-day period, during which the animals were observed daily for general health. The monkeys were 2-4 years old and weighed between 2 and 4 kg. Ten groups of four randomly assigned male cynomolgus monkeys each were injected subcutaneously with ISIS oligonucleotide or PBS. PBS solution or ISIS oligonucleotides at a dose of 40 mg/kg were administered initially with a loading regimen consisting of four doses on the first week of the study (days 1, 3, 5, and 7), followed by a maintenance regimen consisting of once weekly administration starting on Day 14 (weeks 2 to 13). Subcutaneous injections were performed in clock-wise rotations at 4 sites on the back; one site per dose. The injection sites were delineated by tattoo, while sedated using ketamine, and were separated by a minimum of 3 cm.
To evaluate any effect of ISIS oligonucleotides in cynomolgus monkeys on hematologic parameters, blood samples of approximately 1.2 mL of blood was collected pre-dose and on day 87 or day 88 from each of the available study animals in tubes containing K2-EDTA. Samples were analyzed for red blood cell (RBC) count, white blood cells (WBC) count, platelet count, hemoglobin content and hematocrit, using an ADVIA2120i hematology analyzer (SIEMENS, USA).

[6] = tested on: PKK protein; test: PKK protein in cynomolgus monkey plasma by ELISA (Example 8); format: in vivo; conditions: 40 mg/kg sc
Description: Approximately 0.9 mL of blood was collected each time from all available animals at pre-dose, day 17, day 31, day 45, day 59, and day 73, and placed in tubes containing 3.2% sodium citrate. The tubes were centrifuged (3000 rpm for 10 min at room temperature) to obtain plasma. PKK protein levels were measured in the plasma by ELISA. The results are presented in Table 52, expressed as percentage inhibition compared to the PBS control levels.

[7] = Urine protein/creatinine ratio in cynomolgus monkeys (Example 8); conditions: cynomolgus monkey, 40 mg/kg sc
Description: as §6
Kidney function was also assessed by urinalysis. Fresh urine from all animals was collected using a clean cage pan on wet ice. Food was removed overnight the day before fresh urine collection was done but water was supplied. The total protein and creatinine levels were measured using a Toshiba 120FR NEO automated chemistry analyzer (Toshiba Co., Japan) and the protein to creatinine ratio was calculated.

[8] = Kidney function: plasma BUN and creatinine in cynomolgus monkeys (Example 8); conditions: 40 mg/kg s.c.
[9] = Liver function markers in cynomolgus monkeys (Example 8); conditions: cynomolgus monkey plasma, 40 mg/kg sc
[10] = Tolerability / clinical observation of cynomolgus monkeys (Example 8); format: in vivo, cynomolgus monkey; conditions: primates, Example 8
Description: Cynomolgus monkeys were treated with ISIS antisense oligonucleotides selected from studies described above. Antisense oligonucleotide efficacy and tolerability were evaluated. The human antisense oligonucleotides tested are cross-reactive with the rhesus genomic sequence (GENBANK Accession No. NW_001118167.1 truncated from nucleotides 2358000 to 2391000 and designated herein as SEQ ID NO: 18).
During the study period, the monkeys were observed a minimum of once daily for signs of illness or distress. Any animal experiencing more than momentary or slight pain or distress due to the treatment, injury or illness was promptly reported to the responsible veterinarian and the Study Director. Any animal in poor health or in a possible moribund condition was identified for further monitoring and possible euthanasia. […] The protocols described in the Example were approved by the Institutional Animal Care and Use Committee (IACUC).

[11] = tested on: human PKK mRNA; test: Dose-dependent antisense inhibition of human PKK in HepaRG cells, 0.19-5.00 uM (Example 5); format: cell-based; conditions: 4 point dose response curve (0.19-5.0 μM), HepaRG cells, electroporation
How it was run: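 HepaRG cells (20,000/well) were electroporated with antisense oligonucleotide at 0.19, 0.56, 1.67 and 5.00 μM and treated for about 16 hours. PKK mRNA was quantified by qRT-PCR with primer probe set RTS3454, normalised to RIBOGREEN total RNA, and IC50 was derived per oligonucleotide.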

[12] = tested on: human PKK mRNA; test: Human PKK mRNA in liver of human KLKB1 transgenic mice (Example 7); format: in vivo; conditions: transgenic mice, 2.5, 5.0, 10 or 20 mg/kg/week s.c.; three values for four doses, dose not assignable
How it was run: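 Transgenic mice carrying a 37,390 bp human KLKB1 fragment dosed subcutaneously twice weekly for 3 weeks at 2.5, 5.0, 10 or 20 mg/kg/week; PBS controls. Liver harvested 48 h after the last dose. Human PKK mRNA measured by real-time PCR and expressed as % inhibition versus PBS.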

[13] = C-reactive protein and complement C3 levels in cynomolgus monkeys (Example 8); conditions: cynomolgus monkey plasma, 40 mg/kg sc
Description: as §6
To evaluate any inflammatory effect of ISIS oligonucleotides in cynomolgus monkeys, the monkeys were fasted overnight. Approximately, 1.5 mL of blood samples were collected from all the study groups. Blood was collected in tubes without anticoagulant for serum separation. The tubes were kept at room temperature for a minimum of 90 min and then centrifuged at 3,000 rpm for 10 min. C-reactive protein (CRP), which is synthesized in the liver and which serves as a marker of inflammation, was measured using a Toshiba 120FR NEO chemistry analyzer (Toshiba Co., Japan). Complement C3 was also measured similarly, and the data is presented as a percentage of baseline values.

[14] = tested on: human PKK mRNA; test: Antisense inhibition of human PKK mRNA in HepaRG cells, 5,000 nM (Example 2); format: cell-based; conditions: HepaRG cells, 5,000 nM, electroporation, 24 hours
How it was run: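 HepaRG cells (20,000/well) electroporated with 5,000 nM MOE gapmer (phosphorothioate backbone, 5-methylcytosines) and harvested after ~24 h. PKK mRNA measured by qRT-PCR with primer probe set RTS3454, normalized to RIBOGREEN total RNA; percent inhibition versus untreated cells.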

[15] = tested on: PKK mRNA; test: PKK mRNA in cynomolgus monkey liver (Example 8); format: in vivo; conditions: primates, Example 8
How it was run: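 Cynomolgus monkeys were dosed with human antisense oligonucleotides cross-reactive with the rhesus sequence. Liver RNA taken on day 87 or 88, 48 h after the last dose, was assayed by real-time PCR (primer probe set RTS3455) and normalized to cyclophilin. Values are percent PKK mRNA inhibition versus PBS control.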

## ISIS 141923: control oligonucleotide, 5-10-5 MOE gapmer with no known murine target, CCTTCCCTGAAGGTTCCTCC; SEQ ID NO: 2246 (sugars from the 5' end e5 d10 e5, backbone and methylation of C not given here) [reference compound]
[1]
  Percent change in vascular permeability compared to the untreated PBS control, Colon: 2%
  Percent change in vascular permeability compared to the untreated PBS control, Feet: 80%
  Percent change in vascular permeability compared to the untreated PBS control, Intestines: 14%
[2]
  OD600 nm of Evans Blue dye, Colons: 0.44
  OD600 nm of Evans Blue dye, Ears: 0.08
  OD600 nm of Evans Blue dye, Feet: 0.14
  OD600 nm of Evans Blue dye, Intestines: 0.29
[3]
  Percent inhibition of PKK mRNA expression compared to the untreated PBS control: 0%
[4]
  Percent inhibition of C1-INH mRNA expression compared to the untreated PBS control: 79%

## mCes mCes mCes mCes mCes Tds Tds mCds Tds Tds Tds Ads Tds Ads Gds mCes mCes Aes Ges mCe [ISIS 546343]
[5]
  HCT: 42%
  Hemoglobin: 12.6 g/dL
  Platelets: 373000 µL⁻¹
  RBC: 5.5e+06 µL⁻¹
  WBC: 14000 µL⁻¹
[6]; Day 17
  PKK protein level reduction (%) in plasma relative to control levels: 56%
[6]; Day 31
  PKK protein level reduction (%) in plasma relative to control levels: 74%
[6]; Day 45
  PKK protein level reduction (%) in plasma relative to control levels: 69%
[6]; Day 59
  PKK protein level reduction (%) in plasma relative to control levels: 70%
[6]; Day 73
  PKK protein level reduction (%) in plasma relative to control levels: 70%
[7]
  Urine protein/creatinine ratio: 0.01
[8]
  Plasma BUN: 26.2 mg/dL
  Plasma Creatinine: 1.0 mg/dL
[9]
  ALT: 76 IU/L
  AST: 49 IU/L
  Albumin: 4.3 g/dL
[10]
  tolerability in primates: tolerable in primates
[11]
  pIC50: 6.40
[12]
  human PKK mRNA inhibition: 46% and 66% and 86%
[13]
  C3 (% of baseline): 60 % of baseline
  CRP: 0.2 mg/dL
[14]
  inhibition of human PKK mRNA: 97% and 91%
[15]
  inhibiting PKK mRNA and protein expression in primates: effective for inhibiting PKK mRNA and protein expression
